Results on 18 compounds are retold here after ChEMBL document CHEMBL3044801, “Synthesis and antiprotozoal activity of 1,2,3,4-tetrahydro-2-thioxopyrimidine analogs of combretastatin A-4” (Med Chem Res, 2011).

Usually pIC50 stands for the negative decadic logarithm of the IC50, by convention in mol/L.

Molecules are shown by their SMILES. pIC50: −log10 of the molar value. Active and inactive are the calls of the source. The calls are words filed in the database; no cut-off is given here. Some results are limits rather than exact numbers.

One data set relates to Plasmodium falciparum. As to the kind of experiment: Antiprotozoan activity against Plasmodium falciparum assessed as inhibition of [3H]hypoxanthine incorporation incubated for 24 hr prior to [3H]hypoxanthine addition measured after 18 hr by liquid scintillation counting. In kind it is functional, organism-based.
The test system of the next data set is Leishmania tarentolae. As to the kind of experiment: Antiprotozoan activity against Leishmania tarentolae after 72 hr by MTT assay. Type of data set: functional, organism-based. On the technique in general: Tetrazolium assays rely on reduction of a dye to a coloured formazan, in cell work by metabolically active cells.
A further data set concerns Trypanosoma lewisi. As to the kind of experiment: Antiprotozoan activity against Trypanosoma lewisi after 72 hr by MTT assay. In kind it is functional, organism-based.
The subject of a further data set is L1210. As to the kind of experiment: Cytotoxicity against Mus musculus (mouse) L1210 cells after 72 hr by MTT assay. In kind it is cell-based. To be noted: L1210, 72 h.
The subject of the next data set is B16. As to the kind of experiment: Cytotoxicity against Mus musculus (mouse) B16 cells after 72 hr by MTT assay. Type of data set: cell-based. Particulars: B16, 72 h.
For data set [1], the system named is Giardia intestinalis. As to the kind of experiment: Antiprotozoan activity against Giardia intestinalis after 72 hr by MTT assay. Type of data set: functional, organism-based. To be noted: Giardia duodenalis.
For data set [2], the system named is Giardia intestinalis. As to the kind of experiment: Antiprotozoan activity against Giardia intestinalis assessed as decrease in viability at 12.1 to 21.5 uM after 72 hr by microscopic analysis. Particulars: Giardia duodenalis. In kind it is functional, organism-based.
A short description of data set [3]: Selectivity index, ratio of IC50 for mouse B16 cells to IC50 for Trypanosoma lewisi. Type of data set: toxicity, cell-based. Particulars: B16 cells versus Trypanosoma lewisi, read-out: Ratio IC50.
Data set [4] in a line: Selectivity index, ratio of IC50 for mouse L1210 cells to IC50 for Trypanosoma lewisi. Type of data set: toxicity, cell-based. To be noted: L1210 cells versus Trypanosoma lewisi, read-out: Ratio IC50.
Data set [5] in a line: Selectivity index, ratio of IC50 for mouse B16 cells to IC50 for Leishmania tarentolae. Particulars: B16 cells versus Leishmania tarentolae, read-out: Ratio IC50. In kind it is toxicity, cell-based.
The nature of data set [6]: Selectivity index, ratio of IC50 for mouse L1210 cells to IC50 for Giardia lamblia.
The nature of data set [7]: Selectivity index, ratio of IC50 for mouse L1210 cells to IC50 for Leishmania tarentolae. In kind it is toxicity, cell-based. To be noted: L1210 cells versus Leishmania tarentolae, read-out: Ratio IC50.
A short description of data set [8]: Selectivity index, ratio of IC50 for mouse B16 cells to IC50 for Giardia lamblia.

With `COc1ccc(C2=CC(c3ccc(OC)cc3)NC(=S)N2)cc1` (stereo not drawn), the pIC50 was 4.60 in the data set on Plasmodium falciparum; 4.75 in the data set with Leishmania tarentolae; 4.82 in the data set with Trypanosoma lewisi; below 4.00 in the data set on L1210; below 4.00 in the data set on B16.
Consider `COc1cc(C2=CC(c3cc(OC)c(OC)c(OC)c3)NC(=S)N2)cc(OC)c1OC` (stereo not drawn), for which the pIC50 in the data set on Leishmania tarentolae was 4.33; in the data set with Trypanosoma lewisi, 4.53; in the data set with Giardia intestinalis [1], 4.61.
Regarding `COc1ccc(OC)c(C2=CC(c3cc(OC)ccc3OC)NC(=S)N2)c1` (stereo not drawn), the pIC50 in the data set with Plasmodium falciparum was 4.55; in the data set on Leishmania tarentolae, 4.74; with Trypanosoma lewisi, 4.56; with L1210 it was below 4.00; in the data set on Giardia intestinalis [1], below 4.00; with B16, below 4.00.
For the compound `COc1ccc(C2C=C(c3cc(OC)ccc3OC)NC(=S)N2)cc1` (stereo not drawn), the pIC50 was 4.16 with Plasmodium falciparum; 4.94 in the data set on Leishmania tarentolae; 4.78 with Trypanosoma lewisi; 4.06 with L1210; below 4.00 in the data set on Giardia intestinalis [1]; 4.10 with B16.
With `COc1ccc(C2C=C(c3cc(OC)c(OC)c(OC)c3)NC(=S)N2)cc1OC` (stereo not drawn), the pIC50 was 4.44 in the data set with Leishmania tarentolae, 4.28 with Trypanosoma lewisi and 4.64 with Giardia intestinalis [1].
With `COc1ccc(C2=CC(c3c(OC)cc(OC)cc3OC)NC(=S)N2)cc1` (stereo not drawn), the pIC50 was 4.84 with Plasmodium falciparum; 4.60 with Leishmania tarentolae; 4.87 in the data set on Trypanosoma lewisi; 4.07 in the data set with L1210; below 4.00 in the data set with Giardia intestinalis [1]; 4.60 in the data set with B16.
For the compound `COc1cccc(C2C=C(c3cc(OC)c(OC)c(OC)c3)NC(=S)N2)c1` (stereo not drawn), the pIC50 with Leishmania tarentolae is 4.71; in the data set on Trypanosoma lewisi, 4.61; with Giardia intestinalis [1] it was 4.39.
`COc1ccc(OC)c(C2=CC(c3ccc(OC)c([N+](=O)[O-])c3)NC(=S)N2)c1` (stereo not drawn): the pIC50 was 4.68 in the data set on Leishmania tarentolae, 4.48 with Trypanosoma lewisi and 4.24 with Giardia intestinalis [1].
Consider `COc1ccc(C2C=C(c3cc(OC)c(OC)c(OC)c3)NC(=S)N2)cc1O` (stereo not drawn), for which the pIC50 was 4.92 in the data set with Leishmania tarentolae, 4.31 in the data set with Trypanosoma lewisi and 4.67 with Giardia intestinalis [1]. Also, the result in the data set on Giardia intestinalis [2] was Active.
Turning to `COc1cc(OC)c(C2C=C(c3cc(OC)c(OC)c(OC)c3)NC(=S)N2)c(OC)c1` (stereo not drawn), the values for the pIC50 in the data set on Leishmania tarentolae, with Trypanosoma lewisi and in the data set on Giardia intestinalis [1] were 4.33, 4.53 and 4.69, respectively.
On to `COc1ccc(OC)c(C2=CC(c3cc(OC)c(OC)c(OC)c3)NC(=S)N2)c1` (stereo not drawn), for which the pIC50 in the data set on Plasmodium falciparum was 4.88; in the data set on Leishmania tarentolae, 4.77; in the data set on Trypanosoma lewisi, 4.80; in the data set on L1210, 5.22; with Giardia intestinalis [1], below 4.00; in the data set on B16 it was 6.30.
`COc1ccc(C2C=C(c3cc(OC)c(OC)c(OC)c3)NC(=S)N2)cc1` (stereo not drawn): the pIC50 in the data set with Plasmodium falciparum was 4.84; with Leishmania tarentolae, 4.90; in the data set on Trypanosoma lewisi, 4.75; with L1210, 4.39; with Giardia intestinalis [1] it was 4.65; in the data set on B16, 4.44.
In the case of `COc1ccc(C2=CC(c3ccc(OC)c(OC)c3)NC(S)=N2)cc1` (stereo not drawn), the pIC50 in the data set on Plasmodium falciparum is 4.51; in the data set with Leishmania tarentolae, 4.57; in the data set with Trypanosoma lewisi, 4.59; in the data set on L1210, below 4.00; in the data set with Giardia intestinalis [1], below 4.00; with B16, below 4.00.
As to `COc1ccc(C2C=C(c3cc(OC)c(OC)c(OC)c3)NC(=S)N2)cc1[N+](=O)[O-]` (stereo not drawn), the pIC50 in the data set with Leishmania tarentolae was 4.90; with Trypanosoma lewisi it was 4.40; with Giardia intestinalis [1], 4.61. The selectivity ratio in data set [3] is 2; in [4], 2; in data set [5], 8; in data set [7] it was 8. The “Ratio IC50” value in data set [6] and in data set [8] was 4 in each case.
Consider `COc1cc(OC)c(C2C=C(c3cc(OC)ccc3OC)NC(=S)N2)c(OC)c1` (stereo not drawn), for which the pIC50 is 4.76 with Plasmodium falciparum, 4.98 in the data set with Leishmania tarentolae, 4.60 in the data set with Trypanosoma lewisi and 4.47 in the data set with Giardia intestinalis [1].
On to `COc1ccc(OC)c(C2C=C(c3cc(OC)c(OC)c(OC)c3)NC(=S)N2)c1` (stereo not drawn), for which the figures for the pIC50 in the data set with Leishmania tarentolae, in the data set with Trypanosoma lewisi and in the data set on Giardia intestinalis [1] were 4.52, 4.32 and 4.63, respectively.
`COc1cc(C2=CC(c3ccc([N+](=O)[O-])cc3)NC(=S)N2)cc(OC)c1OC` (stereo not drawn): the pIC50 in the data set with Leishmania tarentolae is 4.86; with Trypanosoma lewisi, 4.30; in the data set with Giardia intestinalis [1], 4.68. The selectivity ratio was determined as 2 in [3], 2 in data set [4], 8 in data set [5] and 8 in [7]. The “Ratio IC50” value in data set [6] and in data set [8] was 4 in each case.
Turning to `COc1cc(C2=CC(c3ccc(Cl)cc3)NC(=S)N2)cc(OC)c1OC` (stereo not drawn), the pIC50 with Leishmania tarentolae was 4.99; with Trypanosoma lewisi, 4.57; with Giardia intestinalis [1], 4.33.
